Results on eight molecules are retold here after patent publication US20030138430A1, “Pharmaceutical comprising an agent that blocks the cell cycle and an antibody” (priority 2002, published 2003).

Structures can show the parent of a compound that is named as a salt.

Data set [1] deals with BT-474 breast and NCI H322 lung adenocarcinoma cells. The data set is described as follows: Cell cycle analysis by flow cytometry (DAPI), high erbB2 cell lines. The format is cell-based. To be noted: BT-474 and H322; BB-94 10 μM alone. Here is the method: (§1) Cells were dissociated from the culture plates using Versene (Gibco) and resuspended in calcium- and magnesium-free phosphate-buffered saline containing bovine serum albumin and sodium azide. Exactly 2×10^5 cells were stained with R-Phycoerythrin-conjugated-anti-HER-2/neu murine IgG (Cat. 340552, Becton Dickinson) in buffer containing 100 μg/mL mouse IgG (Cat. 15381, Sigma). Cells were fixed with […]. 92-002, Becton Dickinson) followed by a short post-fix with ethanol at -20° C. Cellular DNA was stained with DAPI (Cat. D1306, Molecular Probes) in buffer containing RNase A (Sigma). […] For each cell analyzed, data was collected on signal pulses from linear forward scatter height and width, linear area and width of DAPI fluorescence for DNA, and logarithmic fluorescence height of the HER-2/neu antibody probe. […] The remaining cells were analyzed for cell cycle position by manual gating and HER-2/neu surface antigen density. Using the bead standard system described in Example 2, values of mean fluorescence intensity for HER-2/neu and other antigens were converted to values of “Antibodies Bound per Cell” (ABC) during analysis. […] Antigen presentation was quantified against calibrated bead standards calibrated by the vendor for murine IgG binding capacity (Quantum Simply Cellular Bead, Cat. QSC-100, Sigma); calibration beads were stained with R-phycoerythrin-conjugated anti-HER-2/neu murine IgG. […]
In general terms: In flow cytometry, cells or beads pass a laser one at a time.

The subject of data set [2] is erbB2 receptor on BT-474 breast and NCI H322 lung adenocarcinoma cells. Description: Quantitation of cell surface erbB2 presentation, high erbB2 cell lines. To be noted: BT-474 and H322. The format is cell-based. Here is the method:
as §1

Data set [3] has as its system HT-29 colon adenocarcinoma cells. Description: Cell cycle analysis by flow cytometry (propidium iodide). The format is cell-based, human. To be noted: HT-29 cells; media control 6.3%. The protocol:
(§2) FIG. 7. Cell Cycle Analysis and Quantitation of Antigen Expression. Populations of adenocarcinoma cells were evaluated for distribution in G0/G1, S, and G2/M phases of the cell cycle as well as Ep-CAM presentation on the cell surface. […] Cells were exposed to 5-fluorouracil (5-FU) for 24 hours, and to the interferons continuously for 2-5 days. Cells were washed and cultured for another 2 days prior to analysis for antigen presentation except for cells exposed to interferons. Cells were lightly trypsinized and mechanically detached from the culture flasks and resuspended in calcium- and magnesium-free phosphate-buffered saline containing bovine serum albumin and sodium azide. Exactly 2×10^5 cells were stained with FITC-323/A3 murine IgG antibody or FITC-murine IgG (control). Cells were fixed with cold paraformaldehyde, then permeabilized for DNA staining with Tween-20. Cellular DNA was stained with a propidium iodide buffer containing RNAse A. Listmode data were acquired using Lysis II software on a FACScan flow cytometer (Becton Dickinson Immunocytometry Systems) equipped with a 488 nm laser. Cell cycle analysis was done using CellFit software for SOBR modeling of the histograms (where possible, otherwise manual estimations were employed) on Cell-Fit. Ep-CAM antigen presentation was quantitated by comparison of the mean fluorescence intensity of fluorescein-conjugated 323/A3 bound to cultured cells with the fluorescence intensity of calibrated microbead standards and evaluated separately using histogram analysis in WinList (Verity Software House). Standard curves of calibration bead concentration versus fluorescence intensity were constructed in SoftMax Pro (Molecular Devices, Inc.), and fluorescence intensity of stained cells was used to calculate the number of antigen molecules per cell for the population.
(§3) Adenocarcinoma cells (HT-29) were exposed to Navelbine or Taxol or combinations of drugs as indicated in FIG. 7 and the cells were evaluated for cell surface Ep-CAM presentation in addition to cell cycle distribution. […]

The subject of data set [4] is Ep-CAM antigen on HT-29 colon adenocarcinoma cells. The data set is described as follows: Internalization of lutetium-177-labeled GW1208W95 (anti-Ep-CAM). To be noted: HT-29 cells pretreated with drug; 37° C. The format is cell-based, human.
Procedure: Internalization of Lutetium-177-labeled GW1208W95 (anti-Ep-CAM) by Human Colon Adenocarcinoma Cells. Colon adenocarcinoma cells (HT-29) were plated in 6-well plates and cultured. Subconfluent cells were exposed to cytotoxic drugs for up to 24 hours. Cells were washed and cultured for another 2-5 days. The plates were put on ice (0° C.) for minimum of 60 minutes and lutetium-177-labeled coupled to 6,6″-bis {N,N,N″,N″-tetra(carboxymethyl)aminomethyl)-4′-(3-bromoacetamido-4-methoxyphenyl-2,2′:6,2″-terpyridine) at 0.5-1.0 mCi/mg was added at a final concentration of 6.7 nM. Cells were incubated at 0° C. for 3.5 hr. Following incubation at 0° C., the cells were washed with 2.5 mL of ice-cold phosphate-buffered saline with human serum albumin (1%) (PBS-HSA). Then 2.5 mL pre-warmed media was added and the labeled cells were incubated at 37° C. At the indicated time points, cells were washed twice with 2.5 mL PBS-HSA. Cells were incubated for 5 minutes at room temperature with 2.5 mL 0.1 M NaCl in 0.05 M glycine (pH 2.8) to detemine labeled antibody bound to the target surface antigen. The incubation was repeated and counts pooled. Internalized counts were determined by solubilization of the cell layer with 1.0 mL of 1 N NaOH. Samples were counted using a Packard CliniGamma 5000. Data was normalized to cell count for each well.
Colon adenocarcinoma cells (HT-29) in culture were pretreated with chemotherapeutic agents as described previously for the evaluation of cell cycle and cell surface antigen quantitation. […] Cells were pulse-labeled with ^177Lu-GW1208W95 (6.7 nM @ 0.5-1.0 mCi/mg protein) for a minimum of 60 minutes at 0° C. on ice to inhibit surface antigen internalization. After washing away of excess radiolabeled antibody fresh media was added, and the cells were incubated at 37° C. for time indicated. Surface-bound antibody was eluted with isotonic buffer and both acid-labile (surface-bound) and acid-stable (internalized) radioactivity were quantitated.
For data set [5] the test system is unchanged. The data set is described as follows: Quantitation of cell surface Ep-CAM antigen with FITC-323/A3. The class given is cell-based, human. To be noted: HT-29 cells after drug exposure, vs media control. Here is the method:
as §2, §3

For data set [6], the system named is erbB2 receptor on NHBE and HMEC normal epithelial cells. Description: Quantitation of cell surface erbB2 presentation on normal epithelial cells. The class given is cell-based, human. To be noted: compared with untreated controls. Here is the method:
Cells were exposed to Gemzar (gemcitabine (GMZ), Lilly, Indianapolis, Ind.) or 5FU (Adrucil®, Pharmacia & Upjohn) for 24 hours. Cells were exposed to interferons continuously for 2-5 days. Following drug exposure, cells were washed and cultured for another 2-5 days prior to analysis for antigen presentation and cell cycle status, except for those treated with interferons. Cells were dissociated from the culture plates using a collagenase cocktail (1:1:1,Types I, II, and IV, 0.1% (wt/vol), Gibco) in calcium- and magnesium-free phosphate-buffered saline. Cells were stained and cytometric data was collected as described in Example 1, and antigen expression was quantified as described in Example 2.

Data set [7] deals with erbB2 receptor on MCF-7 and MDA-MB-468 breast adenocarcinoma cells. The data set is described as follows: Quantitation of cell surface erbB2 presentation. The format is cell-based. To be noted: for cell surface erbB2 presentation: compared with untreated controls (Example 2); for cell surface presentation of erbB2 receptor: Example 3. The protocol:
(§4) Populations of adenocarcinoma cells were evaluated for distribution in G0/G1, S and G2/M phases of the cell cycle as well as for erbB2/neu presentation. Cells were dissociated from the culture plates using Versene (Gibco) and resuspended in calcium- and magnesium-free phosphate-buffered saline containing bovine serum albumin and sodium azide. Exactly 2×10^5 cells were stained with R-Phycoerythrin-conjugated-anti-HER-2/neu murine IgG (Cat. 340552, Becton Dickinson) in buffer containing 100 μg/mL mouse IgG (Cat. 15381, Sigma). Cells were fixed with FACSLyse (Cat. 92-002, Becton Dickinson) followed by a short post-fix with ethanol at −20° C. Cellular DNA was stained with DAPI (Cat. D1306, Molecular Probes) in buffer containing RNase A (Sigma).
Sample data were collected on a FACStar^PLUS® flow cytometer (Becton Dickinson) equipped with a 488 nm argon ion laser in position 1 and a 350 nm argon ion laser in position 2. For each cell analyzed, data was collected on signal pulses from linear forward scatter height and width, linear area and width of DAPI fluorescence for DNA, and logarithmic fluorescence height of the HER-2/neu antibody probe. The resulting listmode files were processed using Winlist 3D© software (Verity Software House, Topsham, Me.). […] The remaining cells were analyzed for cell cycle position by manual gating and HER-2/neu surface antigen density. Using the bead standard system described in Example 2, values of mean fluorescence intensity for HER-2/neu and other antigens were converted to values of “Antibodies Bound per Cell” (ABC) during analysis.
Cells were exposed to Gemzar (gemcitabine (GMZ), Lilly, Indianapolis, Ind.) for 24 hours. […] Following drug exposure, cells were washed and cultured for another 2-5 days prior to analysis for antigen presentation and cell cycle status, except for those treated with BB-94. Cells were dissociated from the culture plates using Versene (Gibco) and resuspended in calcium- and magnesium-free phosphatebuffered saline containing bovine serum albumin and sodium azide. Exactly 2×10^5 cells were stained as described in Example 1. Antigen presentation was quantified against calibrated bead standards calibrated by the vendor for murine IgG binding capacity (Quantum Simply Cellular Bead, Cat. QSC-100, Sigma); calibration beads were stained with R-phycoerythrin-conjugated anti-HER-2/neu murine IgG. Plots of fluorescence intensity against bead IgG binding capacity were constructed, and molecules of IgG bound per cell was read from the fluorescence intensity of the stained cells.
Cells were exposed to interferons continuously for 2-5 days. […] Exactly 2×10^5 cells were stained as described in Example 1, and antigen expression was quantified as described in Example 2.

Data set [8] deals with MCF-7 and MDA-MB-468 breast adenocarcinoma cells. Description: Cell cycle analysis by flow cytometry (DAPI). The class given is cell-based. To be noted: Example 3. The protocol: as §4, with “Cellular DNA was stained with DAPI (Cat. D1306, Molecular Probes) in buffer containing RNase A (Sigma).” left out
Sample data were collected on a FACStar^PLUS® flow cytometer (Becton Dickinson) equipped with a 488 nm argon ion laser in position 1 and a 350 nm argon ion laser in position 2. For each cell analyzed, data was collected on signal pulses from linear forward scatter height and width, linear area and width of DAPI fluorescence for DNA, and logarithmic fluorescence height of the HER-2/neu antibody probe. […] The remaining cells were analyzed for cell cycle position by manual gating and HER-2/neu surface antigen density. Using the bead standard system described in Example 2, values of mean fluorescence intensity for HER-2/neu and other antigens were converted to values of “Antibodies Bound per Cell” (ABC) during analysis. […]

The subject of data set [9] is HT-29 colon adenocarcinoma tumors. The data set is described as follows: Targeting of 177Lu-labelled antibody to Ep-CAM-positive HT-29 xenografts. The class given is in vivo, mouse.
Procedure: Human colon adenocarcinoma (HT-29) tumors were initiated by subcutaneous implantation into female CD-1 nude mice (Charles River). When the tumors reached 200-300 mg, animals were divided into groups of five. […] A control group was dosed with 5-fluorouracil (5-FU) intraperitoneally at 20 mg/kg on days 1 and 5. […] Blood, spleen, liver, lung, kidney, femur, and tumor were harvested on days 1, 3 and 5 post-antibody-dose for direct gamma counting (Packard).
Data set [10] is described as follows: Navelbine tolerability in CD-1 nude mice. To be noted: intravenous, days 1 and 5, CD-1 nude mice.
Procedure: Human colon adenocarcinoma (HT-29) tumors were initiated by subcutaneous implantation into female CD-1 nude mice (Charles River). When the tumors reached 200-300 mg, animals were divided into groups of five. Navelbine was injected intravenously at a dosage of 28 mg/kg in vehicle (5% dextrose in distilled water) on days 1 and 5.
Data set [11] deals with PC-3 prostatic adenocarcinoma cells. To be noted: PC-3 cells; Navelbine 30 nM alone or with cisplatin; GW3622W94; human PBMC effectors 50:1; 6 hours.
Procedure: Ep-CAM Antigen Expression and ADCC of Prostatic Adenocarcinoma in Culture. Biological Effectiveness in vitro as Measured by Antibody-dependent Cellular Cytotoxicity. […] Target cells were cultured overnight with 100 μCi Na2^51CrO4 (Amersham) in media, and then washed 3 times with RPMI-1640 containing 2 mM L-glutamine, 50 μg/mL gentamicin, and 10% heat-inactivated FBS. […] Spontaneous lysis wells (CPMspontaneous) received media (no effectors) and total lysis wells (CPMTotal) received Triton-X-100. Cultures were incubated for 6 hours at 37° C./5% CO2, then supernatants were harvested using Skatron filter frames (Skatron Instruments, Sterling Va.). Radioactivity was counted in a gamma counter and the percentage specific release, corrected for spontaneous lysis, was calculated.
Data set [12] relates to SK-BR-3, MCF-7 and BT-474 breast adenocarcinoma cell lines. The format is cell-based. Here is the method: Cells were exposed to Gemzar (gemcitabine (GMZ), Lilly, Indianapolis, Ind.) for 24 hours. […] Cells were exposed to interferons continuously for 2-5 days.

As for `CNC(=O)[C@H](Cc1ccccc1)NC(=O)[C@H](CC(C)C)[C@H](CSc1cccs1)C(=O)NO` [BB-94], the cell cycle distribution entry in [1] was “did not affect cell cycle distribution”. Further, the “cell surface erbB2 presentation” value in data set [2] is given as “increase in erbB2 presentation”.
On to `O=c1[nH]cc(F)c(=O)[nH]1` [5-FU, 5-fluorouracil], for which, in [3], the “cells in S and G2/M phases combined” value is reported as 7.9%. For the same molecule, the “internalization of the radiolabelled antibody 177Lu-GW1208W95” value (“internalization” below) in [4] is reported as “extensive internalization”. Besides, in data set [5], the “cell surface Ep-CAM expression” value is “not significantly increased”.
For the molecule `CC(=O)O[C@H]1C(=O)[C@@]2(C)[C@H]([C@H](OC(=O)c3ccccc3)[C@]3(O)C[C@H](OC(=O)[C@H](O)[C@@H](NC(=O)c4ccccc4)c4ccccc4)C(C)=C1C3(C)C)[C@]1(OC(C)=O)CO[C@@H]1C[C@@H]2O` [Taxol, 5β, 20 epoxy-1,2α,4,7β,10β,13α-hexahydroxytax-11-en-9-one 4,10-diacetate 2-benzoate 13-ester with (2R, 3S)-N-benzoyl-3-phenylisoserine], the “cell surface erbB2 presentation” value in data set [6] is given as “no significant increases”; in [7] it was “significant increases”. The “internalization” value in data set [4] is “significantly inhibited internalization”.
With interferon-alpha, the “cells in S and G2/M phases combined” value in data set [3] worked out at 12%. In [8], the cell cycle distribution entry is recorded as “not significantly different from media control cells”. Further, in data set [7], the “cell surface presentation of erbB2 receptor” value is given as “not significantly increased”. The “cell surface Ep-CAM expression” value in [5] was “not significantly increased”.
interferon-gamma: interferon-gamma: the “cells in S and G2/M phases combined” value in data set [3] is reported as 11.5%. In addition, the cell cycle distribution result in data set [8] is listed as “not significantly different from media control cells”. Further, the “cell surface presentation of erbB2 receptor” value in data set [7] was “not significantly increased”. In addition, in data set [5], the “cell surface Ep-CAM expression” value is given as “not significantly increased”.
With `CCC1=C[C@@H]2CN(C1)Cc1c([nH]c3ccccc13)[C@@](C(=O)OC)(c1cc3c(cc1OC)N(C)[C@H]1[C@@](O)(C(=O)OC)[C@H](OC(C)=O)[C@]4(CC)C=CCN5CC[C@]31[C@@H]54)C2` (relative stereo) [Navelbine, 3′, 4′-didehydro-4′-deoxy-C′-norvincaleukoblastine [R-(R*,R*)-2,3-dihydroxybutanedioate (1:2)(salt)]], the tumor regression entry in data set [9] (Navelbine 28 mg/kg i.v. days 1 and 5, HT-29 xenografts) was “minimal tumor regression”. In data set [9] (Navelbine pretreatment 28 mg/kg i.v. days 1 and 5, relative to vehicle- or 5-FU-treated animals), the “increase in tumor targeting of 177Lu-labelled antibody” value worked out at 2 fold. The “cell surface erbB2 presentation” value in data set [6] is “no significant increases”; in data set [7], “significant increases”. In addition, the “internalization” value in [4] is recorded as “significantly inhibited internalization”. This molecule showed an LD10 in data set [10] of approximately 28 mg/kg. For the same molecule, in data set [11], the “ADCC lysis of antibody-coated tumor target cells after drug pre-treatment” value is recorded as “improved”.
As to `Nc1ccn([C@@H]2O[C@H](CO)[C@@H](O)C2(F)F)c(=O)n1` [Gemzar, gemcitabine], the “cell surface erbB2 presentation” value in data set [2] is given as “significant increases”. Further, the “toxicity to cell lines based on the 18 s values” in data set [12] was “toxic”.

B1: interferon-gamma: interferon-gamma (protein, UniProt P01579 24-161, looked up)
Interferon gamma: QDPYVKEAENLKKYFNAGHSDVADNGTLFLGILKNWKEESDRKIMQSQIVSFYFKLFKNFKDDQSIQKSVETIKEDMNVKFFNSNKKKRDDFEKLTNYSVTDLNVQRKAIHELIQVMAELSPAAKTGKRKRSQMLFRG
For the molecule B1, the “toxicity to cell lines based on the 18 s values” in [12] is “toxic”.
